# In patent US11572590B2, “Methods for evaluating tumor cell spheroids using 3D microfluidic cell culture device” (Dana-Farber Cancer Institute, Inc., priority 2017, dated 2023):
# System: CT26 MDOTS
# Assay: Live/dead (AO/PI) imaging of CT26 MDOTS in 3D microfluidic culture
# Assay type: cell-based, murine
# Conditions: Cmpd1 (1 μM) + αPD-1, 6 days
# Experimental: Fresh tumor specimens (murine and human patients) were received in media (DMEM) on ice and minced in a 10 cm dish (on ice) using sterile forceps and scalpel. Minced tumor was resuspended in DMEM ([…], […] sodium pyruvate, 1:100 penicillin-streptomycin) (Corning CellGro, Manassas, Va.) +10% FBS (Gemini Bio-Products, West Sacramento, Calif.), 100 U/mL collagenase type IV (Life Technologies, Carlsbad, Calif.), and 15 mM HEPES (Life Technologies, Carlsbad, Calif.), except for CT26 tumors that were prepared in RPMI. Samples were pelleted and resuspended in 10-20 mL media. Red blood cells were removed from visibly bloody samples using RBC Lysis Buffer (Boston Bio-Products, Ashland, Mass.). […]
# Dual labeling was performed by loading microfluidic device with Nexcelom ViaStain™ AO/PI Staining Solution (Nexcelom, CS2-0106). Following incubation with the dyes (20 minutes at room temperature in the dark), images were captured on a Nikon Eclipse 80i fluorescence microscope equipped with Z-stack (Prior) and CoolSNAP CCD camera (Roper Scientific). […] Live and dead cell quantitation was performed by measuring total cell area of each dye. […]
structure (smiles),measurement,value
"N#Cc1cc(-c2ncnc(Nc3ccc(N4CCN(C5COC5)CC4)cc3)n2)ccc1OC1CCOCC1 [Compound 1, 5-(4-((4-(4-(oxetan-3-yl)piperazin-1-yl)phenyl)amino)-1,3,5-triazin-2-yl)-2-((tetrahydro-2H-pyran-4-yl)oxy)benzonitrile]","killing of CT26 MDOTS, ex vivo combination treatment",enhanced killing
